# Experimental data taken from patent publication US20180353482A1, “MIRABEGRON FOR THE TREATMENT OF RETINAL DISEASES” (SORBONNE UNIVERSITE, priority 2015, published 2018).
# Entries after “also recorded” stand apart in the source; their conditions may differ.
# Legend:
# Format in all cases: cell-based, porcine
# RPE cells [1] = assay: Alkalinisation and measurement of lysosomal pH (pHL) of RPE cells treated with tamoxifen
# cathepsin D = assay: Cathepsin D activity measurement in RPE cells treated with concanamycin; conditions: FIG. 2
# Protocol: (§1) Pigs' eyes are delivered to Institut de la Vision in a cold medium from a local slaughterhouse. The eyes are dissected so as to remove the anterior segment of the eye, the vitreous body and the neural retina. The eyeballs are then washed twice with PBS, filled with trypsin (0.25% in PBS) and incubated at 37° C. for 1 hr15. The RPE cells are then retrieved by repeated pipetting, centrifuged to remove the trypsin, and resuspended in DMEM culture medium supplemented with 20% foetal calf serum (DMEM20% FCS). The cells of each eye are then inoculated in a 6 cm diameter Petri dish, cultured in an atmosphere containing 5% CO2 at 37° C., and the culture medium is replaced after 24 hours and 4 days in vitro. After one week, the cells reach confluency and can then be passaged.
# After one week in culture, the cells are treated with trypsin and transferred into 3.5 cm diameter Petri dishes at a cell density of 1.5×10^5 cells/cm^2 in DMEM2% FCS. After 24 hours, the cells are treated with 20 nM of concanamycin so as to inhibit the activity of cathepsin D, as well as with a beta-adrenergic agonist. After 24 hours of treatment, the cells are washed with PBS and then transferred into an extraction buffer on ice. The cell extract is centrifuged at 2000 rpm at 4° C. for 10 minutes and the supernatant corresponding to the cytosolic part is frozen at −80° C. until the measurement of the enzyme activity. The activity of cathepsin D is measured using the Anson method (J Gen Physiol. 1938, 22(1):79-89) that we adapted to our experimental schedule. In brief, the cytosolic extract is incubated for 10 minutes at 37° C. in a haemoglobin solution (2.5% in 400 mM of citrate buffer at pH 2.8). The reaction is stopped by adding 5% trichloroacetic acid and the mixture is centrifuged. The optical density of the supernatant containing the breakdown products of haemoglobin is measured at 280 nm. The absorbance is corrected by subtracting that of the control, prepared as above but by adding haemoglobin after stopping the enzymatic reaction. One unit of cathepsin D is then defined as being the quantity of enzyme required to induce a change of absorbance of 1 to 280 nm for 60 minutes of incubation using the experimental conditions described hereinabove. The protein concentration of the cell lysates is measured according to the Bradford method so as to normalise the results.
# Cathepsin D is the lysosomal proteolytic enzyme mainly present in the retinal pigment epithelium involved in photoreceptor outer segment digestion. The activity thereof is dependent on the protonation of the amino acid aspartic acid of the active site thereof and on the conformation thereof, which both require an acidic environment. […]
# RPE cells [2] = assay: In vitro model of lipofuscin accumulation in RPE (oxidised photoreceptor outer segments); conditions: FIG. 3
# Protocol: as §1, with “The cells of each eye are then inoculated in a 6 cm diameter Petri dish, cultured in an atmosphere containing 5% CO2 at 37° C., and the culture medium is replaced after 24 hours and 4 days in vitro. After one week, the cells reach confluency and can then be passaged.” left out
# In order to induce an accumulation of lipofuscin type material in the RPE cells, the latter are treated 3 times per week with 5×10^6 POS-ox in DMEM20% FCS containing 2.5% of sucrose for two weeks. […] The autofluorescence induced by the accumulation of lipofuscin is measured using a plate reader (excitation at 480 nm and emission between 500 and 700 nm corresponding to the emission spectrum of lipofuscin).
# In order to verify whether the different beta-adrenergic agonists are capable of also acting upon lipofuscin accumulation, we also tested them in a cell model wherein this accumulation is induced by treating RPE cells with oxidised OS by UV exposure every two days. […] The lipofuscin accumulation was measured after two weeks of co-treatment by measuring the autofluorescence of the cells.
# [3] = RPE cells with 20 nM concanamycin, 24 hours of treatment
structure (smiles),measurement,setting,value
"C[C@H](Cc1ccc2c(c1)OC(C(=O)[O-])(C(=O)[O-])O2)NC[C@H](O)c1cccc(Cl)c1.[Na+].[Na+] [CL-316,243]",concentration from which effective on re-acidification of the lysosomal pH,"RPE cells [1]; cells treated with 15 μM tamoxifen, FIG. 1",20 nM
C/C=C/[C@H]1O[C@@](O)([C@@H](C)[C@H](O)[C@H](C)[C@H]2OC(=O)/C(OC)=C/C(C)=C/[C@@H](C)[C@@H](O)[C@@H](CC)[C@@H](O)[C@H](C)C/C(C)=C/C=C/[C@@H]2OC)C[C@@H](O)[C@@H]1C [concanamycin],cathepsin D activity,cathepsin D; [3],0.013 unit/ml of enzyme/min/μg of proteins
"Nc1nc(CC(=O)Nc2ccc(CCNC[C@H](O)c3ccccc3)cc2)cs1 [mirabegron, (R)-2-(2-aminothiazol-4-yl)-4′-[2-[(2-hydroxy-2-phenylethyl)amino]ethyl]acetic acid anilide]",effect on lysosomal pH (in words),"RPE cells [1]; 1 pM, FIG. 1",lowers the lysosomal pH
same,restoration of cathepsin D activity (in words),cathepsin D; RPE cells treated with concanamycin,significantly restores the activity of cathepsin D
same,cathepsin D activity,cathepsin D; [3],0.040 unit/ml of enzyme/min/μg of proteins
same,multiplication of cathepsin D activity compared to negative control (concanamycin),cathepsin D; [3],3 fold
same,effect on lipofuscin accumulation / photoreceptor outer segment digestion (in words),"RPE cells [2]; RPE cells, two weeks of treatment",significantly reduce the accumulation of lipofuscin; also recorded: reduces the accumulation of lipofuscin
same,reduction of the accumulation of lipofuscin by RPE cells (autofluorescence),"RPE cells [2]; agonist at 10 μM, two weeks of co-treatment with oxidised outer segments, versus DMSO control",~20%
CC/C(=C(\c1ccccc1)c1ccc(OCCN(C)C)cc1)c1ccccc1 [tamoxifen],increase in the lysosomal pH,"RPE cells [1]; 15 μM tamoxifen, in 20 minutes",~1 pH unit
